Values quoted from earlier work in paper PMC7984292 (Chemmedchem, 2020).
Where “and” joins values, the source holds several entries; their conditions need not be identical. Equal entries are not always repeated.

Assays:
[1] = not given; remark: listed apart in the source
[2] = molecular target: hDAT (Homo sapiens, UniProt Q01959); conditions: read-out: IC50 hDAT; oxo isomers; taken from reference
Chain of hDAT (Q01959 whole entry): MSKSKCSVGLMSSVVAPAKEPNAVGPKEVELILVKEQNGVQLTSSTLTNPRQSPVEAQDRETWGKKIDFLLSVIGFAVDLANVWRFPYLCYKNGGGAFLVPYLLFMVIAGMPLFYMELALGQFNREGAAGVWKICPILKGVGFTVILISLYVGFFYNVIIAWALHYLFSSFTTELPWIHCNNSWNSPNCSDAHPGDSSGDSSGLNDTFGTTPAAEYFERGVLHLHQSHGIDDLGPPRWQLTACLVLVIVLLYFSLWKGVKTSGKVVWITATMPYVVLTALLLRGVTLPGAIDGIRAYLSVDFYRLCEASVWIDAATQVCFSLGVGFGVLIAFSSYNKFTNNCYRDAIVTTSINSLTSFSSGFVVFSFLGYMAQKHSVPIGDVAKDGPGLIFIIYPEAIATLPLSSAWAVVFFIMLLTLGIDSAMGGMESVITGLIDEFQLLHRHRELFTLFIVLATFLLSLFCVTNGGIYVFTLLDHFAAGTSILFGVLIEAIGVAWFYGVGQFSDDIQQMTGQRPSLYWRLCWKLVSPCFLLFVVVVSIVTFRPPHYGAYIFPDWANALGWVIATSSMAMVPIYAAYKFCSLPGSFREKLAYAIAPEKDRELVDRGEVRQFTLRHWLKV

O=C(O)CN(CCN(CC(=O)O)Cc1ccccc1O)Cc1ccccc1O [HBED]
log K GaL (stability constant for the Ga3+ complex): 38.51

CN1[C@H]2CC[C@@H]1[C@@H](CN(CC[S-])CC[N-]CC[S-])[C@@H](c1ccc(Cl)cc1)C2.[O]=[99Tc+4] [TRODAT‐1 6]
log P ([1]; value in parentheses = log P, literature value): (0.29±0.04) ^[29]
IC50 [2]: 0.00842 µM and 0.0139 µM

COC(=O)[C@H]1[C@@H](OC(=O)c2ccccc2)C[C@@H]2CC[C@H]1N2C [cocaine 1, cocaine]
log D 7.4 ([1]; pH 7.4): 1.31±0.01 ^[22]
